Key:
[1] = Hygroscopicity study (storage at 90% RH, weighing and PXRD after five days); format: physicochemical; details: for PXRD (compared to intact bulk) / PXRD - overnight at ambient condition: after five days at 90% RH; for PXRD - overnight at ambient condition: then equilibrated at ambient temperature overnight; for Water uptake after 5 days: humidity chamber at 90% RH (BaCl2-2H2O), five days
Method: The salt samples are weighed into aluminum crucibles, placed onto a sample holder, and stored in the humidity chamber at 90% RH (BaCl2-2H2O). The samples are visually inspected with a hand magnifying lens and weighed on an analytical balance after five days. The samples are analyzed by PXRD after five days, then allowed to equilibrate at ambient temperatures overnight and re-analyzed by PXRD to evaluate stability of suspected hydrates under ambient conditions.

[2] = Solid-state stability study under 40° C./75% RH (HPLC remaining % and purity); format: physicochemical; details: 40° C./75% RH for 6 month; for Purity (Area %) Main peak: counterion area excluded
Method: HPLC data are obtained by Waters Alliance 2695 HPLC system with 2996 PDA detector using the following conditions; • Column: Inertsil ODS-3 (3 microm, 4.6×150 mm), • Eluent: acetonitrile/10 mM ammonium acetate=32/68, • Detection: UV at 215 nm, • Flow rate: 1 mL/min, and • Column temperature: 40° C.
Solid-state stability study is performed using Nagano Science Constant temperature/humidity control chamber LH-20-11M or LH-21-11M. The sample is placed in the chamber and exposed under 40° C./75% RH. The crystalline form and thermal behavior of the resultant sample after the exposure are evaluated by PXRD and TG/DTA, respectively. The remaining % and the purity are determined by HPLC measurement.

Molecule | PXRD (compared to intact bulk) [1] | PXRD - overnight at ambient condition [1] | Assay Remaining % [2] [%] | Purity (Area %) Main peak [2] [Area %] | Water uptake after 5 days [1]
4-{[4-({[4-(2,2,2-trifluoroethoxy)-1,2-benzisoxazol-3-yl]oxy}methyl)piperidin-1-yl]methyl}tetrahydro-2H-pyran-4-carboxylic acid hemi-ethanedisulfonate salt [EDSA-salt] | same | no change | 99 | 100.0 | –
O=C(O)C1(CN2CCC(COc3noc4cccc(OCC(F)(F)F)c34)CC2)CCOCC1 [Free form, 4-{[4-({[4-(2,2,2-trifluoroethoxy)-1,2-benzisoxazol-3-yl]oxy}methyl)piperidin-1-yl]methyl}tetrahydro-2H-pyran-4-carboxylic acid] | different from the intact bulk | no change | 87 | 95.6 | 16.7 wt %
Br.O=C(O)C1(CN2CCC(COc3noc4cccc(OCC(F)(F)F)c34)CC2)CCOCC1 [HBr-salt, 4-{[4-({[4-(2,2,2-trifluoroethoxy)-1,2-benzisoxazol-3-yl]oxy}methyl)piperidin-1-yl]methyl}tetrahydro-2H-pyran-4-carboxylic acid hydrobromide salt] | same | no change | 99 | 99.9 | –
O=C([O-])C1(CN2CCC(COc3noc4cccc(OCC(F)(F)F)c34)CC2)CCOCC1.[Na+] [sodium salt, 4-{[4-({[4-(2,2,2-trifluoroethoxy)-1,2-benzisoxazol-3-yl]oxy}methyl)piperidin-1-yl]methyl}tetrahydro-2H-pyran-4-carboxylic acid sodium salt] | – | – | – | – | more than 40 wt %

The next lines start with the values.

PXRD (compared to intact bulk) [1] | PXRD - overnight at ambient condition [1] | Assay Remaining % [2] [%] | Purity (Area %) Main peak [2] [Area %] | Water uptake after 5 days [1] | Molecule
same | no change | 97 | 98.8 | – | Cl.O=C(O)C1(CN2CCC(COc3noc4cccc(OCC(F)(F)F)c34)CC2)CCOCC1 [HCl-salt, 4-{[4-({[4-(2,2,2-trifluoroethoxy)-1,2-benzisoxazol-3-yl]oxy}methyl)piperidin-1-yl]methyl}tetrahydro-2H-pyran-4-carboxylic acid hydrochloride salt]
same | no change | 98 | 99.7 | – | Cc1ccc(S(=O)(=O)O)cc1.O=C(O)C1(CN2CCC(COc3noc4cccc(OCC(F)(F)F)c34)CC2)CCOCC1 [pTSA-salt, 4-{[4-({[4-(2,2,2-trifluoroethoxy)-1,2-benzisoxazol-3-yl]oxy}methyl)piperidin-1-yl]methyl}tetrahydro-2H-pyran-4-carboxylic acid p-toluenesulfonate salt]

— US9988370B2, “Benzisoxazole derivative salt” (RaQualia Pharma Inc., priority 2014, dated 2018)
